How the values were obtained:
smallflower flatsedge = assay: Test B flood test smallflower flatsedge; assay type: in vivo, Cyperus difformis
Method in brief: (§1)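 Each value is a visual injury score relative to controls, with 10 meaning complete control and 0 no effect. Evaluation took place twelve to sixteen days after the 2-leaf-stage plants were treated and kept in the greenhouse.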

blackgrass = assay: Test B pre/postemergence blackgrass; assay type: in vivo, Alopecurus myosuroides
Method in brief: (§2)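 Herbicidal effect was estimated by eye on a ten-point control scale after plants spent twelve to sixteen days in a greenhouse following soil or foliar treatment. Foliar sprays targeted plants at one to four leaves; all doses were formulated in a non-phytotoxic solvent with surfactant.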

surinam grass = assay: Test B pre/postemergence surinam grass; assay type: in vivo, Brachiaria decumbens
Method in brief: as §2

cocklebur = assay: Test B pre/postemergence cocklebur; assay type: in vivo, Xanthium strumarium
Method in brief: as §2

rape = assay: Test B pre/postemergence rape; assay type: in vivo, Brassica napus
Method in brief: as §2

wheat = assay: Test B pre/postemergence wheat; assay type: in vivo, Triticum aestivum
Method in brief: as §2

morningglory = assay: Test B pre/postemergence morningglory; assay type: in vivo, Ipomoea hederacea
Method in brief: as §2

velvetleaf = assay: Test B pre/postemergence velvetleaf; assay type: in vivo, Abutilon theophrasti
Method in brief: as §2

duck salad = assay: Test B flood test duck salad; assay type: in vivo, Heteranthera limosa
Method in brief: as §1

corn = assay: Test B pre/postemergence corn; assay type: in vivo, Zea mays
Method in brief: as §2

wild oat = assay: Test B pre/postemergence wild oat; assay type: in vivo, Avena fatua
Method in brief: as §2

giant foxtail = assay: Test B pre/postemergence giant foxtail; assay type: in vivo, Setaria faberii
Method in brief: as §2

soybean = assay: Test B pre/postemergence soybean; assay type: in vivo, Glycine max
Method in brief: as §2

crabgrass = assay: Test B pre/postemergence crabgrass; assay type: in vivo, Digitaria sanguinalis
Method in brief: as §2

bedstraw = assay: Test B pre/postemergence bedstraw; assay type: in vivo, Galium aparine
Method in brief: as §2

bamyardgrass = assay: Test B flood test barnyardgrass; assay type: in vivo, Echinochloa crus-galli
Method in brief: as §1

[1] = Rate 31 g/ha, Pre-emergence section (flood test species), scale 0 to 10
[2] = Rate 62 g/ha, headed Pre-emergence (flood test species), scale 0 to 10 (0 no effect, 10 complete control)
[3] = Rate 125 g/ha, Pre-emergence, flood test species, scale 0 to 10 where 0 is no effect and 10 is complete control
[4] = Rate 250 g/ha, Pre-emergence, flood-test species, scale 0 to 10, 0 is no effect, 10 is complete control
[5] = Preemergence, Rate 62 g/ha, scale of 0 to 10 where 0 is no effect and 10 is complete control
[6] = Preemergence, Rate 125 g/ha, 0 is no effect, 10 is complete control
[7] = Preemergence, Rate 250 g/ha, scale 0 to 10, 0 is no effect, 10 is complete control
[8] = Preemergence, Rate 500 g/ha, scale of 0 to 10 where 0 is no effect and 10 is complete control
[9] = Rate 62 g/ha, Postemergence, scale of 0 to 10 where 0 is no effect and 10 is complete control
[10] = Rate 125 g/ha, Postemergence, scale 0 to 10
[11] = Rate 500 g/ha, Postemergence, scale 0 to 10
[12] = Rate 500 g/ha, headed Pre-emergence (flood test species), scale 0 to 10 (0 no effect, 10 complete control)

Cc1nc(C)c(-n2c(=O)on(C(=O)N(c3ccc(Cl)cc3)C(C)C)c2=O)s1 [Compound 196]
0: S. Flatsedge plant response rating (smallflower flatsedge; [1]) | S. Flatsedge plant response rating (smallflower flatsedge; [2]) | S. Flatsedge plant response rating (smallflower flatsedge; [3]) | S. Flatsedge plant response rating (smallflower flatsedge; [4]) | S. Flatsedge plant response rating (smallflower flatsedge; Rate 500 g/ha, Pre-emergence, flood test species, scale 0 to 10 (0 no effect, 10 complete control)) | Blackgrass plant response rating (blackgrass; [5]) | Blackgrass plant response rating (0 to 10 scale) (blackgrass; [6]) | Blackgrass plant response rating (blackgrass; [7]) | Plant response rating, Blackgrass (blackgrass; [8]) | Blackgrass plant response rating (blackgrass; [9]) | Blackgrass plant response rating (blackgrass; [10]) | Plant response rating (0 to 10; 0 is no effect, 10 is complete control), Blackgrass (blackgrass; Rate 250 g/ha, Postemergence) | Blackgrass plant response rating (blackgrass; [11]) | B. signalgrass plant response rating (surinam grass; [5]) | B. signalgrass plant response rating (0 to 10 scale) (surinam grass; [6]) | B. signalgrass plant response rating (surinam grass; [7]) | Plant response rating, B. signalgrass (surinam grass; [8]) | B. signalgrass plant response rating (surinam grass; [9]) | B. signalgrass plant response rating (surinam grass; Rate 125 g/ha, Postemergence, scale 0 (no effect) to 10 (complete control)) | Plant response rating, B. signalgrass (surinam grass; Rate 250 g/ha, Postemergence, scale 0 to 10, 0 is no effect, 10 is complete control) | B. signalgrass plant response rating (surinam grass; Rate 500 g/ha, Postemergence, scale 0 to 10, 0 no effect, 10 complete control) | Cocklebur plant response rating (cocklebur; [5]) | Cocklebur plant response rating (0 to 10 scale) (cocklebur; [6]) | Cocklebur plant response rating (cocklebur; [7]) | Plant response rating, Cocklebur (cocklebur; [8]) | Cocklebur plant response rating (cocklebur; [9]) | Cocklebur plant response rating (cocklebur; [10]) | Plant response rating (0 to 10; 0 is no effect, 10 is complete control), Cocklebur (cocklebur; Rate 250 g/ha, Postemergence) | Cocklebur plant response rating (cocklebur; [11]) | Rape plant response rating (rape; [5]) | Rape plant response rating (0 to 10 scale) (rape; [6]) | Rape plant response rating (rape; [7]) | Plant response rating, Rape (rape; [8]) | Rape plant response rating (rape; [9]) | Rape plant response rating (rape; [10]) | Plant response rating (0 to 10; 0 is no effect, 10 is complete control), Rape (rape; Rate 250 g/ha, Postemergence) | Rape plant response rating (rape; [11]) | Wheat plant response rating (wheat; [5]) | Wheat plant response rating (wheat; [7]) | Plant response rating, Wheat (wheat; [8]) | Wheat plant response rating (wheat; [9]) | Wheat plant response rating (wheat; [10]) | Plant response rating (0 to 10; 0 is no effect, 10 is complete control), Wheat (wheat; Rate 250 g/ha, Postemergence) | Morningglory plant response rating (morningglory; [5]) | Morningglory plant response rating (0 to 10 scale) (morningglory; [6]) | Morningglory plant response rating (morningglory; [7]) | Plant response rating, Morningglory (morningglory; [8]) | Morningglory plant response rating (morningglory; [9]) | Morningglory plant response rating (morningglory; [10]) | Plant response rating (0 to 10; 0 is no effect, 10 is complete control), Morningglory (morningglory; Rate 250 g/ha, Postemergence) | Morningglory plant response rating (morningglory; [11]) | Velvetleaf plant response rating (velvetleaf; [5]) | Velvetleaf plant response rating (velvetleaf; [7]) | Plant response rating, Velvetleaf (velvetleaf; [8]) | Velvetleaf plant response rating (velvetleaf; [9]) | Velvetleaf plant response rating (velvetleaf; [10]) | Plant response rating (0 to 10; 0 is no effect, 10 is complete control), Velvetleaf (velvetleaf; Rate 250 g/ha, Postemergence) | Ducksalad plant response rating (duck salad; [1]) | Ducksalad plant response rating (duck salad; [2]) | Ducksalad plant response rating (duck salad; [3]) | Ducksalad plant response rating (duck salad; [4]) | Plant response rating, Ducksalad (duck salad; [12]) | Corn plant response rating (corn; [5]) | Corn plant response rating (0 to 10 scale) (corn; [6]) | Corn plant response rating (corn; [7]) | Plant response rating, Corn (corn; [8]) | Corn plant response rating (corn; [9]) | Corn plant response rating (corn; [10]) | Plant response rating (0 to 10; 0 is no effect, 10 is complete control), Corn (corn; Rate 250 g/ha, Postemergence) | Corn plant response rating (corn; [11]) | Wild oats plant response rating (wild oat; [5]) | Wild oats plant response rating (wild oat; [7]) | Plant response rating, Wild oats (wild oat; [8]) | Wild oats plant response rating (wild oat; [9]) | Wild oats plant response rating (wild oat; [10]) | Plant response rating (0 to 10; 0 is no effect, 10 is complete control), Wild oats (wild oat; Rate 250 g/ha, Postemergence) | Giant foxtail plant response rating (giant foxtail; [5]) | Giant foxtail plant response rating (0 to 10 scale) (giant foxtail; [6]) | Giant foxtail plant response rating (giant foxtail; [7]) | Plant response rating, Giant foxtail (giant foxtail; [8]) | Giant foxtail plant response rating (giant foxtail; [9]) | Giant foxtail plant response rating (giant foxtail; [10]) | Plant response rating (0 to 10; 0 is no effect, 10 is complete control), Giant foxtail (giant foxtail; Rate 250 g/ha, Postemergence) | Giant foxtail plant response rating (giant foxtail; [11]) | Soybean plant response rating (soybean; [5]) | Soybean plant response rating (0 to 10 scale) (soybean; [6]) | Soybean plant response rating (soybean; [7]) | Plant response rating, Soybean (soybean; [8]) | Soybean plant response rating (soybean; [9]) | Soybean plant response rating (soybean; [10]) | Plant response rating (0 to 10; 0 is no effect, 10 is complete control), Soybean (soybean; Rate 250 g/ha, Postemergence) | Soybean plant response rating (soybean; [11]) | Crabgrass plant response rating (crabgrass; [5]) | Crabgrass plant response rating (0 to 10 scale) (crabgrass; [6]) | Crabgrass plant response rating (crabgrass; [7]) | Plant response rating, Crabgrass (crabgrass; [8]) | Crabgrass plant response rating (crabgrass; [9]) | Crabgrass plant response rating (crabgrass; [10]) | Plant response rating (0 to 10; 0 is no effect, 10 is complete control), Crabgrass (crabgrass; Rate 250 g/ha, Postemergence) | Crabgrass plant response rating (crabgrass; [11]) | Bedstraw plant response rating (bedstraw; [5]) | Bedstraw plant response rating (0 to 10 scale) (bedstraw; [6]) | Bedstraw plant response rating (bedstraw; [7]) | Plant response rating, Bedstraw (bedstraw; [8]) | Bedstraw plant response rating (bedstraw; [9]) | Bedstraw plant response rating (bedstraw; [10]) | Plant response rating (0 to 10; 0 is no effect, 10 is complete control), Bedstraw (bedstraw; Rate 250 g/ha, Postemergence) | Bedstraw plant response rating (bedstraw; [11]) | Barnyardgrass plant response rating (bamyardgrass; [1]) | Barnyardgrass plant response rating (bamyardgrass; [2]) | Barnyardgrass plant response rating (bamyardgrass; [3]) | Barnyardgrass plant response rating (bamyardgrass; [4]) | Plant response rating, Barnyardgrass (bamyardgrass; [12])

— patent US6737383B1, “Herbicidal oxadiazolidines” (priority 1999, dated 2004)
